Test results reported in BindingDB's records for doi:10.1016/j.ejmech.2012.01.025 (National Institute On Drug Abuse and The National Institute …, 2012).

These compounds were tested against Delta-type opioid receptor (Homo sapiens, UniProt P41143) (assay: Displacement of [3H]-DADLE from human delta opioid receptor expressed in CHO cells membrane after 2 hrs by liquid scintillation counting).
Sequence of Delta-type opioid receptor (P41143 whole entry): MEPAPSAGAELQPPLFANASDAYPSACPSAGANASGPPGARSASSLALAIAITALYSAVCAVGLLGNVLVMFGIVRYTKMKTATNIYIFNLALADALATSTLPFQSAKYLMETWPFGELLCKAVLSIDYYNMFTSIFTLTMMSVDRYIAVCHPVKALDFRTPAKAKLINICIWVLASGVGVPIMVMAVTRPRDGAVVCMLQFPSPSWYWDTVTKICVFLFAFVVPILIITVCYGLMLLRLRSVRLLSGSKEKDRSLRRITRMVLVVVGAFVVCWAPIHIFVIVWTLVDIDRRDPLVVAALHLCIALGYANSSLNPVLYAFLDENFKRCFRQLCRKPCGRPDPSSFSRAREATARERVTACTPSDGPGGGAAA

**Q.** Which Ki does the source give for `CN1C[C@H](O)[C@]2(c3cccc(O)c3)CCC[C@H]1C2` here?
**A.** 7.2 µM

**Q.** For `Oc1cccc([C@@]23CCC[C@@H](C2)N(CCc2ccccc2)C[C@@H]3O)c1`, which Ki is on record?
**A.** 5.8 µM

**Q.** `CN1C[C@@H](O)[C@]2(c3cccc(O)c3)CCC[C@H]1C2` was tested. Which Ki did it give?
**A.** > 15 µM

**Q.** `Oc1cccc([C@@]23CCC[C@@H](C2)N(CCc2ccccc2)C[C@H]3O)c1` was tested. Which Ki did it give?
**A.** 1 µM

**Q.** How did the Ki turn out when `CN1C2CCC[C@@](c3cccc(O)c3)(C2)[C@@H]1CO` was run?
**A.** > 10 µM

**Q.** `CN1CC2(OCCO2)[C@]2(c3cccc(O)c3)CCC[C@H]1C2` was tested. Which Ki did it give?
**A.** > 7.8 µM
